Results as given in ChEMBL document CHEMBL1201862, “PubChem BioAssay data set” (2004).
Calls of active or inactive are those of the source.

How the values were obtained:
[1] = molecular target: Serine/threonine-protein kinase Chk2 (Homo sapiens, UniProt O96017); format: functional;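 further: CHEK2 entry within a kinome-wide screening panel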
[2] = molecular target: Tyrosine-protein kinase BTK (Homo sapiens, UniProt Q06187); format: functional
[3] = molecular target: Serine/threonine-protein kinase SIK2 (Homo sapiens, UniProt Q9H0K1); test: Navigating the Kinome. Panel member name: SIK2; format: functional
Chain of Serine/threonine-protein kinase SIK2 (Q9H0K1 whole entry): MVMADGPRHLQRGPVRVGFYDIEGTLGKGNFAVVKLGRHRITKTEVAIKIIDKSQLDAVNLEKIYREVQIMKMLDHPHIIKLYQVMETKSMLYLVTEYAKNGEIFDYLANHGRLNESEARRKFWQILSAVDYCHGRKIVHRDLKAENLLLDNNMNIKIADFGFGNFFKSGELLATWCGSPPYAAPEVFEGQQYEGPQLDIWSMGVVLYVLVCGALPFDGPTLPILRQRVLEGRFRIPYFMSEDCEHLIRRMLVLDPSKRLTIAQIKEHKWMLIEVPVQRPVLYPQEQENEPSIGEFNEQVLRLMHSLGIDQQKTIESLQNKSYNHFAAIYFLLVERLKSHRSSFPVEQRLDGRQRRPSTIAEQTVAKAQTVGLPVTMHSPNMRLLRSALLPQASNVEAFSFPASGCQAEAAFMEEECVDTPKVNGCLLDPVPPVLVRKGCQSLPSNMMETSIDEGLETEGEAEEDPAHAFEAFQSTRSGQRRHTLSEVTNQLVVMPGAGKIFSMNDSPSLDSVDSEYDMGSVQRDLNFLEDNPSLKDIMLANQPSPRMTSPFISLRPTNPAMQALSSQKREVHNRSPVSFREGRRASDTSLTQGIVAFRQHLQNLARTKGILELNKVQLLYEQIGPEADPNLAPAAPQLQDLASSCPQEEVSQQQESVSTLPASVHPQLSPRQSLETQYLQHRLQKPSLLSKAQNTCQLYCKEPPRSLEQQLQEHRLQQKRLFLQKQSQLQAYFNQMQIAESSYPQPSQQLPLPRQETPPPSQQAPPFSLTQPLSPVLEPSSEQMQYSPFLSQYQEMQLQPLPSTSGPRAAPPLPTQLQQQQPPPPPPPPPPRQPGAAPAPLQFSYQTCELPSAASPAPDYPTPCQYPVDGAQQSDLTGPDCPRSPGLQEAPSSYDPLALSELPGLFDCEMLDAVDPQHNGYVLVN

[4] = molecular target: cAMP-dependent protein kinase catalytic subunit alpha (Homo sapiens, UniProt P17612); format: functional
Exodeoxyribonuclease V = molecular target: T1, Exodeoxyribonuclease V (Escherichia coli (strain K12), UniProt P04993+P07648+P08394); test: RecBCD inhibition via phage-restricted bacterial growth – absorbance, V66 E. coli, mutant T4 phage, counter-screen for AddAB inhibitor project, dose response (AID 492957); format: functional, cell-based, Escherichia coli str. K-12 substr. MG1655
T1 sequence (P04993 whole entry): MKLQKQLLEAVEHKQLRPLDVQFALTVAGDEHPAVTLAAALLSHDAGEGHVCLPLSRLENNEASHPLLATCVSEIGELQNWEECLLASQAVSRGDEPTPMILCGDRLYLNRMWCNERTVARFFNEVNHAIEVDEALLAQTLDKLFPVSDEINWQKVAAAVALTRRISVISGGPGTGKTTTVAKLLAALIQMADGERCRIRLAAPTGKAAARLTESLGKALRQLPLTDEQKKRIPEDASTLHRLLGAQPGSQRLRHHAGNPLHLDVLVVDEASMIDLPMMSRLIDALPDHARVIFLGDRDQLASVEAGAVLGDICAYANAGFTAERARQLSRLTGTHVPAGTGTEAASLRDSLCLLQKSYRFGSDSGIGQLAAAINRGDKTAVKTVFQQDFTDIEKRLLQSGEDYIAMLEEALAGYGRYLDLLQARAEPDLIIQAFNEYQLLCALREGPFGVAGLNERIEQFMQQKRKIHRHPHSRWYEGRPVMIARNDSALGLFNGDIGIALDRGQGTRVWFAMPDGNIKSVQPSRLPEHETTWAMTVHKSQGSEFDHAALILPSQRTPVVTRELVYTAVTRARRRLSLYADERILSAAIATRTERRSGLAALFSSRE
T1 sequence (P07648 whole entry): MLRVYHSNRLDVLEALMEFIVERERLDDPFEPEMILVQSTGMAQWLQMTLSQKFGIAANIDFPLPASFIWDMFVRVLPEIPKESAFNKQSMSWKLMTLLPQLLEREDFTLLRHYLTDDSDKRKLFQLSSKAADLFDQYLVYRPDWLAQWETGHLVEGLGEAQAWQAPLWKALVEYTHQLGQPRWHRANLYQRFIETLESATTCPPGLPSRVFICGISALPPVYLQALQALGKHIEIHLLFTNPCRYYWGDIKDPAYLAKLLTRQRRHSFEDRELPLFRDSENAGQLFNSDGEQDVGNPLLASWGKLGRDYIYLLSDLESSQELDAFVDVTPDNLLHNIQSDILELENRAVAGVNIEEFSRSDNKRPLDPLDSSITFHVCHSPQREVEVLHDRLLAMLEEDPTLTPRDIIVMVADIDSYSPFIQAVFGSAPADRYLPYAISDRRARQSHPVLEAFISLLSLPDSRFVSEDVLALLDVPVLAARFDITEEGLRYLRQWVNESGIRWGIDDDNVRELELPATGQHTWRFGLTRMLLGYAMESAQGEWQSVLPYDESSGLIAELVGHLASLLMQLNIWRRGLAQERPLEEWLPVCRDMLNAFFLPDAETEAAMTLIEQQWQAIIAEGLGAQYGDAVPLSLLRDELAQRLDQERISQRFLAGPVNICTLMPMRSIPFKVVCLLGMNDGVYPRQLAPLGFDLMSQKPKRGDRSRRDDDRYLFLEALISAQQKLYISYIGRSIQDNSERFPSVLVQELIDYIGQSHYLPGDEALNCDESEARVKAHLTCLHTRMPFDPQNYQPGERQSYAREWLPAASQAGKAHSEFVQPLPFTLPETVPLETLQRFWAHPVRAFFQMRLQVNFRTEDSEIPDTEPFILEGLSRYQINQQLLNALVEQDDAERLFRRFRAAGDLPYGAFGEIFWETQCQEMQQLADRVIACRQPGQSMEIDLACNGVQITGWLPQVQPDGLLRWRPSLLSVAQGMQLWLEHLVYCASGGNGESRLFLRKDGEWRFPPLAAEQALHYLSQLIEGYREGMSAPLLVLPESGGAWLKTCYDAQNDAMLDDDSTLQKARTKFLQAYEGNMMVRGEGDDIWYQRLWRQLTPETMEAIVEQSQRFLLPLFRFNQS
T1 sequence (P08394 whole entry): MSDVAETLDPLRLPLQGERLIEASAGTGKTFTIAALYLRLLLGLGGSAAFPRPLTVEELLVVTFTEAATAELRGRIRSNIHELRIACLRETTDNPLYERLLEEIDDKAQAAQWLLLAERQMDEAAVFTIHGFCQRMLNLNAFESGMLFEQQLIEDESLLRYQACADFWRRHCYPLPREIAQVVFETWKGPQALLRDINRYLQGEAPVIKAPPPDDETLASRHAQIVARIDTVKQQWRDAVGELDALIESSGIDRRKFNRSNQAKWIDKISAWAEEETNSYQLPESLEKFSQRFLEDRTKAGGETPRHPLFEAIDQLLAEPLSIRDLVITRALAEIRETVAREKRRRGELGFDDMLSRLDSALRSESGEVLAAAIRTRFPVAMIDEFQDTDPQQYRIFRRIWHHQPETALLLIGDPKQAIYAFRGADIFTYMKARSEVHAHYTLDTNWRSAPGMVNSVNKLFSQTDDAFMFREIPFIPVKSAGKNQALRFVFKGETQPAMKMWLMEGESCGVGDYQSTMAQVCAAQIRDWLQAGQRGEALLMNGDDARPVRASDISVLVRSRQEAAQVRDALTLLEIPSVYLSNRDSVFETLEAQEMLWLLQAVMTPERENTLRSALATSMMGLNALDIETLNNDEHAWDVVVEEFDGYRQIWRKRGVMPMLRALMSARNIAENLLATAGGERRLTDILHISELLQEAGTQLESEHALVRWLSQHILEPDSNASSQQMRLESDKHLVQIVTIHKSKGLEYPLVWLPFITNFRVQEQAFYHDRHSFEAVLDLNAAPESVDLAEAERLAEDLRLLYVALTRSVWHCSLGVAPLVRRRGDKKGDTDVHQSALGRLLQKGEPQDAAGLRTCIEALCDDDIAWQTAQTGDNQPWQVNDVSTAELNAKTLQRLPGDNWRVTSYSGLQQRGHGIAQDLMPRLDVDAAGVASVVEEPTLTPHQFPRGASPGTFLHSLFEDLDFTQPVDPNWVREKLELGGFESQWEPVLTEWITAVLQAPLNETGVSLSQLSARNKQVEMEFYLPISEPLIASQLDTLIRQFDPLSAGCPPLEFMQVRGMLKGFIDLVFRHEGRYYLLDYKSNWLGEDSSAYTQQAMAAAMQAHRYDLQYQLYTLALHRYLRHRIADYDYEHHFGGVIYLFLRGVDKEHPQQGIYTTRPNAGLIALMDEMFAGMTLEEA

Chain of Serine/threonine-protein kinase Chk2 (O96017 whole entry): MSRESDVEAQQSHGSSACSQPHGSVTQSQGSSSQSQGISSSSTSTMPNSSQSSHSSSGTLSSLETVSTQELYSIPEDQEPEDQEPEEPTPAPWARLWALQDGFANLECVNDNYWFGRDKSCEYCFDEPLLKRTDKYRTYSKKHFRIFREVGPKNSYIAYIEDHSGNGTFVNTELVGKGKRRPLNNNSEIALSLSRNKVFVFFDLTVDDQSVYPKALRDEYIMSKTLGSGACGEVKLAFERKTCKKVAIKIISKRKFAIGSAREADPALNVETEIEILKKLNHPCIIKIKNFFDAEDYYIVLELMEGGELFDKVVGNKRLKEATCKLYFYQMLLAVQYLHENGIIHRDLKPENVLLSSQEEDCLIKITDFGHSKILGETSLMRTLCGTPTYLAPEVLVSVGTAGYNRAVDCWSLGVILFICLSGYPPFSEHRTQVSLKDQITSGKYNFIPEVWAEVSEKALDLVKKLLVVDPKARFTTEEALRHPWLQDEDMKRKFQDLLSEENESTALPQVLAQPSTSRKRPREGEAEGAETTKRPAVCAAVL
Chain of Tyrosine-protein kinase BTK (Q06187 whole entry): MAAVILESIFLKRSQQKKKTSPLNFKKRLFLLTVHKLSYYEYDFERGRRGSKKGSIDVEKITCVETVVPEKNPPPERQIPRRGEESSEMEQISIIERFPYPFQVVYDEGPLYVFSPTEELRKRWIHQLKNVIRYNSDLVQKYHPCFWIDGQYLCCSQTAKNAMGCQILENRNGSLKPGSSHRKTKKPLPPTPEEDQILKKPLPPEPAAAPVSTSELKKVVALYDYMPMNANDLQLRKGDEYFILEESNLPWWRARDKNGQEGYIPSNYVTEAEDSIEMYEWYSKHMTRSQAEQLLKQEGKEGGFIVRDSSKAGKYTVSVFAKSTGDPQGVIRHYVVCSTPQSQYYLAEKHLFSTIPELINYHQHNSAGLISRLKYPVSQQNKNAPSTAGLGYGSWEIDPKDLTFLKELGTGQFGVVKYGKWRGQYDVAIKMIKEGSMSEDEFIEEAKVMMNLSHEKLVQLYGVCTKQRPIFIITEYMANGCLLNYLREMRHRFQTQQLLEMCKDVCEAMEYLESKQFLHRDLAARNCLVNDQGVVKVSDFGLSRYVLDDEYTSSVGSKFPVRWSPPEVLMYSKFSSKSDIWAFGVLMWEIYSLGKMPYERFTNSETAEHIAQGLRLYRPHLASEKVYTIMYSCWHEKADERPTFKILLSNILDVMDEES

Ki [1]	Ki [2]	Ki [3]	Ki [4]	SMILES	IC50 (Exodeoxyribonuclease V)
398 nM (active)	> 2.51 µM (inactive)	398 nM (active)	126 nM (active)	OC1CCC(Nc2cc(Cl)nc(-c3c[nH]c4ncccc34)n2)CC1 (stereo not given)	–
–	–	–	–	COCC/N=c1\scc(-c2cccs2)n1/N=C/c1ccc(O)c(O)c1O	> 119 µM (inactive)
